The record followed here is patent US20090291977A1, “Chromane Derivatives Useful As Acid Pump Antagonists” (priority 2004, published 2009).

For assay [1], the system named is acid secretion in the gastric lumen-perfused rat. Kind of assay: Inhibition of acid secretion in the gastric lumen-perfused rat. Conditions: Sprague-Dawley rat, pentagastrin-stimulated acid secretion, intravenous bolus or intraduodenal administration. It counts as in vivo. Here is the method:
Acid secretion in the gastric lumen-perfused rat was measured according to Watanabe et al. [Watanabe K et al., J. Physiol. (Paris) 2000; 94: 111-116].
Male Sprague-Dawley rats, 8 weeks old, deprived of food for 18 hours before the experiment with free access to water, were anesthetized with urethane (1.4 g/kg, i.p.) and tracheotomized. After a middle abdominal incision, a dual polyethylene cannula was inserted into the forestomach and the stomach was perfused with saline (37° C., pH 5.0) at a rate of 1 ml/min. The acid output in the perfusate was determined at 5 minutes interval by titration with 0.02 M NaOH to pH 5.0. After the determination of basal acid secretion for 30 min, the acid secretion was stimulated by a continuous intravenous infusion of pentagastrin (16 μg/kg/h). The test compounds were administered by an intravenous bolus injection or intraduodenal administration after the stimulated acid secretion reached a plateau phase. The acid secretion was monitored after the administration.

For assay [2], the target named is T1, Porcine gastric H+/K+-ATPase (Sus scrofa, UniProt P19156).
T1 construct: The gastric vesicles were collected from interface on 0.25 M sucrose layer containing 7% Ficoll; from tissue; host or cells: mucous membrane of fresh porcine stomachs (gastric vesicles)
T1 sequence (P19156 2-1034 limits assumed): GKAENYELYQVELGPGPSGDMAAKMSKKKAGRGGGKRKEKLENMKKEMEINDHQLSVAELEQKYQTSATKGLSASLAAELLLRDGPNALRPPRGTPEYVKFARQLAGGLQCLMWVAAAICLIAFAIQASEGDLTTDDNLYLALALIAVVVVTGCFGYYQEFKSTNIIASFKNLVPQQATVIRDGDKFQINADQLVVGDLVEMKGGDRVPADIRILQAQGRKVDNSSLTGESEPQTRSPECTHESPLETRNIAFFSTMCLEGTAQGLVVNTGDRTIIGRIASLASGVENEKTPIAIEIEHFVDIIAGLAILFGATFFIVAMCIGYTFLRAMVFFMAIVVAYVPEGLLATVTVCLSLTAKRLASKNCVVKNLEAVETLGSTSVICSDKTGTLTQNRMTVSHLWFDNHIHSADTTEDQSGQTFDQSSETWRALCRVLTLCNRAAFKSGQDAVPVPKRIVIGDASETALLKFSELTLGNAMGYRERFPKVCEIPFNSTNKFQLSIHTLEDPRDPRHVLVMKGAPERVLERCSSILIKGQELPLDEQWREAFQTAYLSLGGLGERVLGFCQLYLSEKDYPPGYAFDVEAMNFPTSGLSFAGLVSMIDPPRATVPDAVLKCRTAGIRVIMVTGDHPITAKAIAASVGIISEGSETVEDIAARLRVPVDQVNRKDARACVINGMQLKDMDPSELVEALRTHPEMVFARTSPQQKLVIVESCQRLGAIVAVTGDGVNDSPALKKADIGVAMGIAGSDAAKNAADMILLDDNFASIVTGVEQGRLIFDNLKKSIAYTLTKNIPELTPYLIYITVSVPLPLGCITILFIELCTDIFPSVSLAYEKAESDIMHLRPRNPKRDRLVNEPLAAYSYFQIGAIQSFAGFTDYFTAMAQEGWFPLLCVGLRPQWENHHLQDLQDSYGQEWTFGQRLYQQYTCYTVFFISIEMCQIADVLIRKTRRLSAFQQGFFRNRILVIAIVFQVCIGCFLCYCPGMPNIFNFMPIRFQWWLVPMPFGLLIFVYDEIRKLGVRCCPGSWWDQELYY
T1 sequence (P18434 whole entry partner): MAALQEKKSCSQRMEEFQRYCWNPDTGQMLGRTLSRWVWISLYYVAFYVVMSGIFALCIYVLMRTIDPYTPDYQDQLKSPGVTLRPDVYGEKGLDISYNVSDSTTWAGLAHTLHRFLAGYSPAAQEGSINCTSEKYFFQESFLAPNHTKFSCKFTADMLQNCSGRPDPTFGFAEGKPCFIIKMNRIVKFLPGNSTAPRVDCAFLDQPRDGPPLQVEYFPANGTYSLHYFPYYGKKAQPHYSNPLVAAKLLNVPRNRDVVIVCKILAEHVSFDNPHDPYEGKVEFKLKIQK
Kind of assay: Ion-leaky porcine gastric H+/K+-ATPase inhibition. Type of assay: biochemical. Conditions: ion-leaky vesicles, 5 mM KCl, pH 6.4, 37° C., 30 minutes. Here is the method:
The porcine gastric vesicles for Porcine gastric H^+/K^+-ATPase inhibition assays were prepared from mucous membrane in fresh porcine stomachs by homogenization with a tight-fitted polytetrafluoroethylene (Teflone®) homogenizer in 0.25 M sucrose at 4° C. The crude pellet was removed with centrifugation at 20,000 g for 30 min. Then supernatant was centrifuged at 100,000 g for 30 min. The resulting pellet was re-suspended in 0.25 M sucrose, and then subjected to density gradient centrifugation at 132,000 g for 90 min. The gastric vesicles were collected from interface on 0.25 M sucrose layer containing 7% Ficoll™ PM400(Amersham Biosciences). This procedure was performed in a cold room.
Ion-leaky porcine gastric H^+/K^+-ATPase-inhibition was measured according to the modified method described in Biochemical Pharmacology, 1988, 37, 2231-2236.
The isolated vesicles were lyophilized, and then kept in deep-freezer until use. For enzyme assay, lyophilized vesicles were reconstituted with 3 mM MgSO4 containing 40 mM Bis-tris (pH 6.4 at 37° C.).
Enzyme reaction was performed incubating 5 mM KCl, 3 mM Na2ATP, 3 mM MgSO4 and 1.0 μg of reconstituted vesicles for 30 minutes at 37° C. in a final 60 μl of reaction mixture (40 mM Bis-tris, pH 6.4) with or without the test compound. Enzyme reaction was stopped by adding 10% sodium dodecyl sulphate (SDS). Released inorganic phosphate from ATP was detected by incubation with mixture of 1 part of 35 mM ammonium molybdate tetrahydrate in 15 mM Zinc acetate hydrate and 4 parts of 10% ascorbic acid (pH 5.0), resulting in phosphomolybdate, which has optical density at 750 nm.

`Cc1cccc2c1C(Nc1cc(C(=O)N(C)CCO)cn3c(C)c(C)nc13)CCO2` (single isomer, unassigned; (+)) [Example 5-3, (+)-N-(2-Hydroxyethyl)-N,2,3-trimethyl-8-[(5-methyl-3,4-dihydro-2H-chromen-4-yl)amino]imidazo[1,2-a]pyridine-6-carboxamide]: in assay [1], the “inhibitory activity (inhibition of acid secretion)” value is recorded as “good inhibitory activity”. In assay [2], this molecule showed an IC50 of 93 nM.
Take `Cc1nc2c(NC3COCc4ccccc43)cc(C(=O)N(C)CCO)cn2c1C` (single isomer, unassigned; (-)) [Example 4-2, (−)-8-(3,4-Dihydro-1H-isochromen-4-ylamino)-N-(2-hydroxyethyl)-N,2,3-trimethylimidazo[1,2-a]pyridine-6-carboxamide]: in assay [2], the IC50 turned out to be 273 nM.
As to `Cc1cccc2c1C(Nc1cc(C(=O)N(C)CCO)cn3c(C)c(C)nc13)CCO2` (single isomer, unassigned; (-)) [Example 5-2, (−)-N-(2-Hydroxyethyl)-N,2,3-trimethyl-8-[(5-methyl-3,4-dihydro-2H-chromen-4-yl)amino]imidazo[1,2-a]pyridine-6-carboxamide], half-maximal inhibition in assay [2] (IC50) required 86.2 nM.
